In BindingDB's records for doi:10.1016/j.bioorg.2016.01.007 (Universiti Teknologi Mara (Uitm), Puncak Alam Campus, 2016):
pIC50: −log10 of the molar value.

Target: T1, Beta-glucuronidase (Bos taurus, UniProt A3KMY8)
T1 sequence (A3KMY8 whole entry): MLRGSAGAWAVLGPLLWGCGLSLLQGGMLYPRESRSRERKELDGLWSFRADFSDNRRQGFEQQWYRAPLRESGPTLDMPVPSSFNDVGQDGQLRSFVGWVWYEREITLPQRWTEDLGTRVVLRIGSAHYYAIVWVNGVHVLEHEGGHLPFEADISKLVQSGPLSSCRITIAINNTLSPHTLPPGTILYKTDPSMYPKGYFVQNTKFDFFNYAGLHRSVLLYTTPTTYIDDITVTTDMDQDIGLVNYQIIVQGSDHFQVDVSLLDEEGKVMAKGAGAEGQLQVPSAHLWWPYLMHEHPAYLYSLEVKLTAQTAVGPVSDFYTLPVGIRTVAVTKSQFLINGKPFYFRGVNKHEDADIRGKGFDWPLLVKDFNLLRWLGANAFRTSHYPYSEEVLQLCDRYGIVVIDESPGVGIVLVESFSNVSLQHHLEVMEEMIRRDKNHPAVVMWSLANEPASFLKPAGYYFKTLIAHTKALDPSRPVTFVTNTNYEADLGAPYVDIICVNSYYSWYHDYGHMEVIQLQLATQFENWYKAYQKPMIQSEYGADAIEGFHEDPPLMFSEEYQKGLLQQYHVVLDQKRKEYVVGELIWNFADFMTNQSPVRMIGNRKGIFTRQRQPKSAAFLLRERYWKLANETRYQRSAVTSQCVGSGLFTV
Assay: β-Glucuronidase Inhibition Assay
Procedure: The total reaction volume was set at 250 µL. The reaction mixture comprises of 185 µL of 0.1 M acetate buffer, 5 µL of test compound solution, 10 µL of enzyme solution and incubated at 37 °C for 30 min. […] All assays were carried out in triplicate.

Row | SMILES | pIC50
1 | COc1ccc(O)c(-c2nc3ncc(Cl)cc3[nH]2)c1 [2-(6-Chloro-1H-imidazo[4,5-b]pyridin-2-yl)-4-methoxyphenol (13)] | 3.89
2 | Oc1ccc(-c2nc3ncc(Cl)cc3[nH]2)c(O)c1 [4-(6-Chloro-1H-imidazo[4,5-b]pyridin-2-yl)benzene-1,3-diol (2)] | 4.30

More lines, now with the values ahead:

Row | pIC50 | SMILES
3 | 3.94 | COc1ccc(-c2nc3ncc(Cl)cc3[nH]2)c(O)c1 [2-(6-Chloro-1H-imidazo[4,5-b]pyridin-2-yl)-5-methoxyphenol (19)]
4 | 4.17 | Oc1cccc(-c2nc3ncc(Cl)cc3[nH]2)c1 [3-(6-Chloro-1H-imidazo[4,5-b]pyridin-2-yl)phenol (8)]
5 | 4.28 | Oc1ccc(-c2nc3ncc(Cl)cc3[nH]2)cc1 [4-(6-Chloro-1H-imidazo[4,5-b]pyridin-2-yl)phenol (26)]
